Measured values from US20160222014A1, “COMPOUNDS FOR REGULATING FAK AND/OR SRC PATHWAYS” (ASANA BIOSCIENCES, LLC, priority 2013, published 2016).

molecular target: T1, recombinant human FAK1 (Homo sapiens, UniProt Q05397); assay: FAK1 HTRF assay; format: biochemical
T1 construct: fused on or other part: N-terminal 6xHis tag
Method: Active FAK1 was prepared for use in the Homogeneous Time-Resolved Fluorescence (HTRF) assay. Briefly, N-terminal 6 His tagged recombinant human FAK1, from residue 692-end (GenBank accession no. L13616) was expressed by Bacculovirus in sf9 cells. […] A 1.6 mg/mL (45 μM) stock was used in the HTRF assay at a final concentration of 10 nM.
Gastrin precursor (tyr87) biotinylated peptide which contains the residues surrounding tyrosine 87 (EEAY*GWM) of gastrin precursor was obtained (Cell Signaling Tech, Item no. 1310, Lot 7). The peptide was provided at a stock concentration of 6 μM, and used a final concentration of 0.5 μM in the HTRF assay.
10 mM stock in 100 μL Enzyme assay buffer pH7.4 was prepared freshly and used at a final concentration of 10 μM in the assay.
Powders were dissolved in 100% DMSO to a final stock concentration of 10 mM. The volume needed (in μL) to add for 10 mM=mg powder is 10^5/MW of compound. The final compound concentration in the assay plate started at 10 μM.
Pfizer FAK inhibitor PF-562271 (N-methyl-N-(3-(((2-((2-oxoindolin-5-yl)amino)-5-(trifluoromethyl)pyrimidin-4-yl)amino)methyl)pyridin-2-yl)methanesulfonamide) was prepared as per the reported procedure from US Patent Publication No. 2005/256145A1.
Streptavidin-Allophycocyanin was obtained (Prozyme, Cat. No. PJ25S. SA-APC was provided at a stock concentration of 2.06 mg/mL, where APC concentration was 11.6 μM and the streptavidin concentration was 15.5 μM. SA-APC was used at a final concentration of 12 nM in the assay (based on streptavidin concentration).
This reagent was obtained from Perkin ElmerAD0068. Europium-W1024-PT-66 Anti Phospho Tyrosine Ab is a monoclonal IgG1 that recognizes phospho tyrosine peptide. 100 μg/mL stock was used at a final concentration of 0.1 nM in the assay.
• 1. The compound dilutions were made by TECAN liquid handler as per the scheme in FIG. 1. • 2. 16 μL of diluted compound was added to each well of the assay plate using TECAN liquid handler. • 3. 20 μL of substrate mix (biotinylated gastrin precursor) was added into each well of the assay plate manually. • 4. 10 μL of enzyme mix (FAK1) was added to each well except mins. • 5. The plate was incubated at rt for 45 min with shaking. • 6. The HTRF mix was prepared and 75 μL was added to the HTRF plate. • 7. After the incubation was over, 10 μL of the mixture was transferred to the HTRF assay plate and incubated for 45 min at rt with shaking. • 8. The readings were taken in Pherastar in HTRF mode (ext 337 nm, em 665 & 620 nm) • 9. The results were analyzed using Graphpad Prism® software after calculation the z factor signal window and % inhibition. • 10. The IC50 was calculated.

T1 sequence (Q05397 422-680 limits assumed): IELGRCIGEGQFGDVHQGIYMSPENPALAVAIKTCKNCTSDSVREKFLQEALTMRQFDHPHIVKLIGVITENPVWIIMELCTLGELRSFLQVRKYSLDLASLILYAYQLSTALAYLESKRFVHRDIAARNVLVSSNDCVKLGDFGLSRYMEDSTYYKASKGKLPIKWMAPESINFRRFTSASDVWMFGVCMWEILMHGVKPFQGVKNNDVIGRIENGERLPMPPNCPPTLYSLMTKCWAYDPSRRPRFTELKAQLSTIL

`COc1cc(Nc2cc3c(ccn3Cc3cccnc3)cn2)cc(OC)c1OC` [Example 6] and `CSc1cccc(Nc2cc3c(ccn3Cc3cccnc3)cn2)c1` [Example 13] cannot be ordered by IC50: over 1000 nM for the first, over 1000 nM for the second.

`O=S(=O)(c1ccc(Nc2cc3c(ccn3Cc3cccnc3)cn2)cc1)C(F)F` [Example 8] and `O=S(=O)(c1ccc(Nc2ncc3ccn(Cc4cccnc4)c3n2)cc1)C(F)F` [Example 17] cannot be ordered by IC50: over 1000 nM for the first, over 1000 nM for the second.

`O=S(=O)(c1ccc(Nc2ncc3ccn(Cc4ccccc4OC(F)F)c3n2)cc1)C(F)F` [Example 9] and `O=S(=O)(c1ccc(Nc2cc3c(ccn3Cc3ccccc3OC(F)F)cn2)cc1)C(F)F` [Example 19] cannot be ordered by IC50: over 1000 nM for the first, over 1000 nM for the second.

`CSc1cccc(Nc2ncc3cnn(Cc4cccnc4)c3n2)c1` [Example 10] and `O=C1CCc2cc(Nc3ncc4cnn(Cc5cccnc5)c4n3)ccc2N1` [Example 14] cannot be ordered by IC50: over 1000 nM for the first, over 1000 nM for the second.

`c1cncc(Cn2ccc3cnc(Nc4ccc5ncsc5c4)cc32)c1` [Example 15] and `FC(F)(F)c1cccc(Nc2cc3c(ccn3Cc3cccnc3)cn2)c1` [Example 16] cannot be ordered by IC50: over 1000 nM for the first, over 1000 nM for the second.

`CN(c1ncccc1Cn1ccc2cnc(Nc3ccc(C#N)nc3)cc21)S(C)(=O)=O` [Example 22] and `CN(c1ncccc1Cn1ccc2cnc(Nc3ccc(S(=O)(=O)C(F)F)cc3)cc21)S(C)(=O)=O` [Example 25] cannot be ordered by IC50: over 1000 nM for the first, over 1000 nM for the second.

`CC(=O)Nc1cccc(Nc2cc3c(ccn3-c3ccccn3)cn2)c1` [Example 37] and `CC(=O)Nc1cccc(Nc2cc3nn(Cc4ccccc4OC(F)F)cc3cn2)c1` [Example 63] cannot be ordered by IC50: over 1000 nM for the first, over 1000 nM for the second.

`O=C1CCc2cc(Nc3ncc4ccn(S(=O)(=O)c5ccc(OC(F)(F)F)cc5)c4n3)ccc2N1` [Example 41] and `O=C1CCc2cc(Nc3cc4c(ccn4S(=O)(=O)c4ccc(OC(F)(F)F)cc4)cn3)ccc2N1` [Example 48] cannot be ordered by IC50: over 1000 nM for the first, over 1000 nM for the second.

`CC(=O)Nc1cccc(Nc2ncc3ccn(S(=O)(=O)c4ccc(OC(F)(F)F)cc4)c3n2)c1` [Example 44] and `CC(=O)Nc1cccc(Nc2cc3c(ccn3S(=O)(=O)c3ccc(OC(F)(F)F)cc3)cn2)c1` [Example 46] cannot be ordered by IC50: over 1000 nM for the first, over 1000 nM for the second.

`CC(=O)Nc1ccc(Nc2cc3c(ccn3S(=O)(=O)c3ccc(OC(F)(F)F)cc3)cn2)cc1` [Example 47] and `COc1ccc(Nc2cc3c(ccn3S(=O)(=O)c3cccc(OC(F)(F)F)c3)cn2)cc1` [Example 53] cannot be ordered by IC50: over 1000 nM for the first, over 1000 nM for the second.

`O=S(=O)(c1ccc(OC(F)(F)F)cc1)n1ccc2cnc(Nc3ccc4ncsc4c3)cc21` [Example 49] and `CS(=O)(=O)c1ccc(Nc2cc3c(ccn3S(=O)(=O)c3cccc(OC(F)(F)F)c3)cn2)cc1` [Example 51] cannot be ordered by IC50: over 1000 nM for the first, over 1000 nM for the second.

`CS(=O)(=O)c1ccc(Nc2cc3c(ccn3S(=O)(=O)c3ccccc3OC(F)(F)F)cn2)cc1` [Example 57] and `O=S(=O)(c1ccccc1OC(F)(F)F)n1ncc2cnc(Nc3ccc4ncsc4c3)cc21` [Example 89] cannot be ordered by IC50: over 1000 nM for the first, over 1000 nM for the second.

Compared with `O=C1CCc2cc(Nc3cc4nn(Cc5ccccc5OC(F)F)cc4cn3)ccc2N1` [Example 67], `O=C1CCc2cc(Nc3ncc4ccn(Cc5ccccc5OC(F)(F)F)c4n3)ccc2N1` [Example 83] is lower in IC50: over 1000 nM for the first, under 20 nM for the second. The second is the more potent here.

`CC(=O)Nc1cccc(Nc2cc3c(cn2)c(C)nn3Cc2cccnc2N(C)S(C)(=O)=O)c1` [Example 68] and `CC(=O)Nc1ccc(Nc2cc3c(cn2)c(C)nn3Cc2cccnc2N(C)S(C)(=O)=O)cc1` [Example 72] cannot be ordered by IC50: over 1000 nM for the first, over 1000 nM for the second.

`CC(=O)Nc1ccc(Nc2cc3c(cn2)c(C)nn3Cc2cccnc2N(C)S(C)(=O)=O)nc1` [Example 70] and `CC(=O)Nc1cccc(Oc2ncc3ccn(Cc4cccnc4N(C)S(C)(=O)=O)c3n2)c1` [Example 124] cannot be ordered by IC50: over 1000 nM for the first, over 1000 nM for the second.

First: CC(=O)Nc1ccccc1Nc1ncc2ccn(Cc3cccnc3N(C)S(C)(=O)=O)c2n1 [Example 71]
Second: CNc1ccc(Nc2ncc3ccn(Cc4cccnc4N(C)S(C)(=O)=O)c3n2)cc1 [Example 156]
The IC50 of the first is higher: over 1000 nM for the first, under 20 nM for the second. The second is the more potent here.

Compared with `CN(c1ncccc1Cn1ccc2cnc(Nc3ccc4c(c3)C(=O)NC4=O)nc21)S(C)(=O)=O` [Example 74], `CN(c1ccccc1Cn1ccc2cnc(Nc3ccc(N4CCNCC4)c(F)c3)nc21)S(C)(=O)=O` [Example 438] is lower in IC50: over 1000 nM for the first, under 20 nM for the second.

Compared with `CC(=O)Nc1cccc(Nc2cc3c(cn2)c(C)nn3S(=O)(=O)c2ccccc2OC(F)(F)F)c1` [Example 88], `COc1cc(Nc2cc3c(ccn3S(=O)(=O)c3ccccc3C#N)cn2)ccc1N1CCN(C)CC1` [Example 492] is lower in IC50: over 1000 nM for the first, under 20 nM for the second.

`O=C1CCc2cc(Nc3cc4c(cn3)cnn4S(=O)(=O)c3cccc4cccnc34)ccc2N1` [Example 187] and `O=S(=O)(c1cccc2cccnc12)n1ncc2cnc(Nc3ccc(N4CCN(CCO)CC4)cc3)cc21` [Example 351] cannot be ordered by IC50: under 20 nM for the first, under 20 nM for the second.

`CN(c1ccccc1Cn1ncc2cnc(Nc3ccc(N4CCNCC4)cc3)cc21)S(C)(=O)=O` [Example 222] and `CN(c1ccccc1Cn1ccc2cnc(Nc3ccc(N4CCNCC4)cc3)cc21)S(C)(=O)=O` [Example 325] cannot be ordered by IC50: under 20 nM for the first, under 20 nM for the second.

`Cn1cnc(S(=O)(=O)n2ccc3cnc(Nc4ccc(N5CCNCC5)cc4)nc32)c1` [Example 236] and `O=S(=O)(C1CCCC1)n1ccc2cnc(Nc3ccc(N4CCNCC4)cc3)nc21` [Example 238] cannot be ordered by IC50: over 1000 nM for the first, over 1000 nM for the second.

`CN(c1ccccc1Cn1ccc2cnc(Nc3ccc(N4CCNCC4)c(F)c3)cc21)S(C)(=O)=O` [Example 322] and `CN(c1ccccc1Cn1ccc2cnc(Nc3ccc(N4CCN5C(=O)CCC5C4)cc3)nc21)S(C)(=O)=O` (centres unmarked) [Example 436] cannot be ordered by IC50: under 20 nM for the first, under 20 nM for the second.

`CC(C)C(=O)Nc1ccc(Nc2ncc3ccn(S(=O)(=O)c4cccc5cccnc45)c3n2)cc1` [Example 324] and `COc1cc(Nc2ncc3ccn(S(=O)(=O)c4cccc5cccnc45)c3n2)ccc1NC(=O)C1CC1` [Example 376] cannot be ordered by IC50: under 20 nM for the first, under 20 nM for the second.

`O=C(C1CC1)N1CCN(c2ccc(Nc3cc4c(cn3)cnn4S(=O)(=O)c3cccc4cccnc34)cc2)CC1` [Example 352] and `O=S(=O)(c1cccc2cccnc12)n1ncc2cnc(Nc3ccc(N4CCOCC4)cc3)nc21` [Example 409] cannot be ordered by IC50: under 20 nM for the first, under 20 nM for the second.

`COc1cc(Nc2ncc3ccn(S(=O)(=O)c4cccc5cccnc45)c3n2)ccc1NC(=O)C1CCC1` [Example 373] and `COc1cc(Nc2ncc3ccn(S(=O)(=O)c4cccc5cccnc45)c3n2)ccc1N1CC2CC1CN2C` (centres unmarked) [Example 439] cannot be ordered by IC50: under 20 nM for the first, under 20 nM for the second.

Going from `CN(c1ncccc1CN1C(=O)C(C)(C)c2cnc(Nc3ccc(N4CCNCC4)cc3)nc21)S(C)(=O)=O` [Example 380] to `CC1(C)CN(S(=O)(=O)c2cccc3cccnc23)c2nc(Nc3ccc(N4CCNCC4)cc3)ncc21` [Example 403], the IC50 falls from over 1000 nM to under 20 nM.

`O=S(=O)(c1cccc2cccnc12)n1ccc2cnc(Nc3ccc(N4CCCC(CO)C4)cc3)nc21` (centres unmarked) [Example 425] and `C[C@@H]1CN(c2ccc(Nc3ncc4c(n3)N(S(=O)(=O)c3cccc5cccnc35)CC4(C)C)cc2)CCN1` [Example 470, (R)-5,5-dimethyl-N-(4-(3-methylpiperazin-1-yl)phenyl)-7-(quinolin-8-ylsulfonyl)-6,7-dihydro-5H-pyrrolo[2,3-d]pyrimidin-2-amine] cannot be ordered by IC50: under 20 nM for the first, under 20 nM for the second.

`CN(c1ccccc1Cn1ccc2cnc(Nc3ccc(NC(=O)C4CC4)cc3)nc21)S(C)(=O)=O` [Example 450] and `C[C@H]1CN(C)CCN1c1ccc(Nc2ncc3ccn(Cc4ccccc4N(C)S(C)(=O)=O)c3n2)cc1` [Example 495] cannot be ordered by IC50: under 20 nM for the first, under 20 nM for the second.

Compared with `CNC(=O)Cc1ccccc1Cn1ccc2cnc(Nc3ccc(N4CCN(C)CC4)cc3)nc21` [Example 474], `CC(C)N1CCN(c2ccc(Nc3ncc4ccn(Cc5ccccc5N(C)S(C)(=O)=O)c4n3)cc2)CC1` [Example 484] is lower in IC50: over 1000 nM for the first, under 20 nM for the second. The second is the more potent here.

`CN1CCN(c2ccc(Nc3ncc4c(n3)N(S(=O)(=O)c3cccc5cccnc35)CC43CC3)cc2)CC1` [Example 499] and `CN1CCCN(c2ccc(Nc3cc4c(ccn4S(=O)(=O)c4ccccc4C#N)cn3)cc2)CC1` [Example 505] cannot be ordered by IC50: under 20 nM for the first, under 20 nM for the second.

`CC1CN(c2ccc(Nc3ncc4ccn(Cc5ccccc5N(C)S(C)(=O)=O)c4n3)cc2)CC(C)N1` (centres unmarked) [Example 523] and `CC1CN(c2ccc(Nc3cc4c(ccn4S(=O)(=O)c4ccccc4C#N)cn3)cc2)CC(C)N1` (centres unmarked) [Example 529] cannot be ordered by IC50: under 20 nM for the first, under 20 nM for the second.
